Data taken from patent US8486959B2, “Dibenzo[f,h]isoquinoline derivatives” (National Health Research Institutes, priority 2010, dated 2013).
Where two headings read alike, the source gives them in different places.

What was measured:
Format in all cases: cell-based
[1] = test system: NCI H460, MCF7, SF268, HONE-1, NUGC-3, HepG2 and A549 cells; assay: Inhibition of cancer cell growth (MTS assay); settings: Homo sapiens, tested cancer cells, 72 h, read-out: CC50 (concentration required to reduce the cancer cell growth by 50%)
Method: NCI H460 (human lung cancer cell line), MCF7 (human breast cancer cell line), SF268 (human brain cancer cell line), HONE-1 (human nasopharyngeal epithelial carcinomas cell line), NUGC-3 (human gastric cancer cell line) cells, HepG2 (human hepatocellular carcinoma cell line), and A549 (human lung adenocarcinoma epithelial cell line) were maintained in DMEM medium containing 10% fetal bovine serum, seeded in 96-well plates (2500, 6500, 7500, 4500, 6000, 10000, or 5000 cells/well), and incubated at 37° C. with 5% CO2 supply for 24 h. The cells were then incubated with or without a test compound (at five different concentrations) in a CO2 incubator at 37° C. for 72 h. The number of viable cells in each well was determined by the tetrazolium dye reduction assay (MTS assay) according to the protocol provided by the manufacturer (Promega, Madison, Wis., USA). For each test compound, a dose-response curve was drawn based on the concentrations of the compound versus the numbers of viable cells treated with the compound at those concentrations. The CC50 value of that compound, referring to the concentration of the compound required to reduce the cancer cell growth by 50%, was determined according to the dose-response curve.

[2] = test system: Transmissible Gastroenteritis Virus (TGEV) spike (S) and nucleocapsid (N) proteins; assay: Inhibition of TGEV protein production (indirect immunofluorescent assay in ST cells)
Method: Swine testicular (ST) cells were cultured in a 96-well plate in the presence or absence of a test compound (at 8 different concentrations) for 2 hours and then infected with TGEV at a MOI of 10. Six hours after TGEV infection, the ST cells were fixed with 80% acetone and subjected to an indirect immunofluorescent assay (IFA) to examine the levels of TGEV spike (S) and nucleocapsid (N) proteins. Briefly, the fixed cells were incubated with murine monoclonal antibodies specific to these two viral proteins for a sufficient period to allow binding of the antibodies to the viral proteins. After being washed with phosphate-buffered saline for three times, the cells were incubated with a fluorescein isothiocyanate-conjugated anti-mouse immunoglobulin antibody (ICN Pharmaceuticals, Inc./Cappel) for 60 min at room temperature. The cells were washed again with phosphate-buffered saline for three times, and the fluorescence intensities released from these cells were measured by a Wallac Victor II system (Packard, Inc.) at excitation and emission wavelengths 485 nm and 535 nm, respectively. The 50% effective concentration (EC50) for inhibiting S and N protein expression of the test compound was determined based on the florescence intensity values thus measured. Alternatively, the fluorescence intensities were detected by fluorescence microscopy. More specifically, the fluorescent images produced under 485 nm and 535 nm were captured by a charge-coupled device linked to a Leica IM50 Image Manager.

[3] = test system: NO production in RAW 264.7 cells; assay: Inhibition of nitric oxide production (Nitrate/Nitrite assay, Griess reagent); settings: Mus musculus, RAW264.7, LPS (10 μg/ml)/IFNγ (20 ng/ml), 18-24 h, read-out: EC50 value for inhibiting nitric oxide production
Method: RAW 264.7 cells were seeded (70,000 cells/well) and cultured in a 96-well culture plate using the DMEM medium described above. 24 hours later, the medium was replaced with a fresh DMEM medium supplemented with LPS (10 μg/ml)/IFNγ (20 ng/ml). Test compounds (at different concentrations) were then added. The cells, incubated with or without test compounds, were then cultured for 18-24 h and the nitrate and nitric oxide levels in the culturing medium were measured using a Nitrate/Nitrite assay kit (Cayman Chemical). Nitrate was reduced to nitrite with nitrate reductase and determined spectrophotometrically with Griess reagent at OD540. For each test compound, a dose-response curve was drawn based on the concentrations of the compound versus the corresponding nitrate/nitric oxide levels in the culturing media of the cells treated with the compound. The EC50 value of that compound for inhibiting nitric oxide production was determined according to the dose-response curve.

[4] = Alphacoronavirus 1, ST cells, compound 2 hours before TGEV infection at MOI of 10, read six hours after infection, read-out: EC50 for inhibiting S and N protein expression
[5] = Alphacoronavirus 1, read-out: EC50 for inhibiting S and N protein expression

Row | Structure (SMILES) | CC50 [1] [µM] | EC50 [2, 4] [µM] | EC50 [3] [µM] | EC50 [2, 5] [µM]
1 | COc1cc2c3c(c4cc(OC)c(OC)cc4c2cc1OC)CN(CC(C)C)CC3 [Compound 21] | < 50 |  |  | 
2 | CCCN1Cc2c(c3cc(OC)c(OC)c(OC)c3c3cc(OC)c(OC)cc23)C(O)C1 (centres unmarked) [Compound 8] | < 50 | < 1 |  | 
3 | COc1cc2c3c(c4cc(OC)c(OC)cc4c2cc1OC)CN(C(C)C)CC3 [Compound 25] | < 50 |  | < 1 | < 1
4 | CCN1CCc2c(c3cc(OC)ccc3c3cc(OC)c(OC)cc23)C1 [Compound 30] | < 50 |  |  | 
5 | CCN1CCc2c(c3cc(OC)c(OC)cc3c3cc(OC)ccc23)C1 [Compound 5] | < 50 | < 1 |  | 
6 | COc1cc2c3c(c4cc(OC)c(OC)c(OC)c4c2cc1OC)CCN(C(C)C)C3 [Compound 4] | < 50 | < 1 |  | 
7 | COc1cc2c3c(c4cc(OC)c(OC)cc4c2cc1OC)CN(CCNC(=O)OC(C)(C)C)CC3 [Compound 35] | < 50 |  |  | 
8 | COc1cc2c3c(c4cc(OC)c(OC)cc4c2cc1OC)CN(CCN)CC3 [Compound 36] | < 50 |  |  | 
9 | CCN1CCc2c(c3cc(OC)c(OC)cc3c3c(OC)c(OC)c(OC)cc23)C1 [Compound 1] | < 50 |  | < 1 | < 1
10 | CCN1Cc2c(c3cc(OC)c(OC)cc3c3cc(OC)c(OC)cc23)C(O)C1 (centres unmarked) [Compound 9] | < 50 | < 1 | < 1 | 
11 | COc1cc2c3c(c4cc(OC)c(OC)cc4c2cc1OC)CN(CCC1OCCO1)CC3 [Compound 24] | < 50 |  |  | 
12 | CCCCN1CCc2c(c3cc(OC)c(OC)cc3c3cc(OC)c(OC)cc23)C1 [Compound 20] | < 50 |  |  | 
13 | CCCN1CCc2c(c3cc(OC)c(OC)cc3c3cc(OC)ccc23)C1 [Compound 6] | < 50 | < 1 |  | 
14 | CCCN1Cc2c(c3cc(OC)c(OC)cc3c3cc(OC)c(OC)cc23)C(O)C1 (centres unmarked) [Compound 10] | < 50 | < 1 | < 1 | 
15 | COc1cc2c3c(c4cc(OC)c(OC)cc4c2cc1OC)CN(C1C=CCCC1)CC3 (centres unmarked) [Compound 34] | < 50 |  |  | 
16 | CCCN1CCc2c(c3cc(OC)ccc3c3cc(OC)c(OC)cc23)C1 [Compound 31] | < 50 |  |  | 
17 | CCCN1CCc2c(c3cc(OC)c(OC)cc3c3cc(OC)c(OC)cc23)C1 [Compound 19] | < 50 |  |  | < 1
18 | CCN1CCc2c(c3cc(OC)c(OC)cc3c3cc(OC)c(OC)cc23)C1 [Compound 18] | < 50 |  |  | 
19 | CCN1Cc2c(c3ccc(OC)cc3c3cc(OC)c(OC)cc23)C(O)C1 (centres unmarked) [Compound 33] | < 50 |  | < 1 | 
20 | CCCN1CCc2c(c3cc(OC)c(OC)cc3c3c(OC)c(OC)c(OC)cc23)C1 [Compound 2] | < 50 |  |  | < 1
21 | CCC(C)N1CCc2c(c3cc(OC)c(OC)cc3c3cc(OC)c(OC)cc23)C1 (centres unmarked) [Compound 26] | < 50 |  |  | < 1
22 | CCCN1CCc2c(c3ccc(OC)cc3c3cc(OC)c(OC)cc23)C1 [Compound 29] | < 50 |  |  | 
23 | CCCN1CCc2c(c3cc(OC)ccc3c3c(OC)c(OC)ccc23)C1 [Compound 32] | < 50 |  |  | 
24 | COc1cc2c3c(c4cc(OC)c(OC)cc4c2cc1OC)C(O)CN(C(C)C)C3 (centres unmarked) [Compound 14] | < 50 |  | < 1 | 
25 | CCCCN1CCc2c(c3cc(OC)c(OC)cc3c3c(OC)c(OC)c(OC)cc23)C1 [Compound 3] | < 50 |  |  | 
26 | CCCCN1CCc2c(c3cc(OC)c(OC)cc3c3cc(OC)ccc23)C1 [Compound 7] | < 50 |  |  | 
27 | COc1cc2c3c(c4cc(OC)c(OC)cc4c2cc1OC)CN(CC1OCCO1)CC3 [Compound 23] | < 50 |  |  | 
